Data: patent US8404706B2, “Opioid and opioid-like compounds and uses thereof” (Jenken Biosciences, Inc., priority 2002, dated 2013)

What was measured:
σ1 = σ1 (Homo sapiens, UniProt Q99720); conditions: cited from earlier work; for Ki: read-out: Ki (σ1-ligands)
[1] = system: rats treated with lipopolysaccharide (LPS); test: Mean arterial blood pressure (MAP) in LPS-treated rats; format: in vivo, Wistar-Kyoto (WKY) rats; conditions: 5 mg/Kg iv 30 min before LPS (10 mg/Kg iv); 6 h after LPS
Experimental: (§1) Wistar-Kyoto (WKY) rats were anesthetized by intraperitoneal injection of urethane (1.2 g/kg). The trachea was cannulated to facilitate respiration and environmental temperature was maintained at 24° C. with an air-conditioning system. […] The left jugular vein was cannulated for the administration of drugs. Upon completion of the surgical procedure, cardiovascular parameters were allowed to stabilize for 30 min. After recording baseline hemodynamic parameters, animals were given norepinephrine [NE, 1 μg/kg intravenously (i.v.)], and 10 min later animals received vehicle (saline) or Escherichia coli lipopolysaccharide (LPS), 5-10 mg/kg, i.v. and were monitored for 360 min. The pressor responses to NE were reassessed every hour after vehicle or LPS injection. Prior to (i.e., at time 0) and every hour after vehicle or LPS, 0.5 mL of blood was taken to measure the changes in cytokine tumor necrosis factor-α (TNF-α), interleukin-10β (IL-10), and nitrate (an indicator of NO) (Yen, M. H. et al., Shock 14, 60-67, 2000). Any blood withdrawn was immediately replaced by the injection of an equal volume of saline (i.v.) in order to maintain the blood volume. The drug was administered i.v. 30 min. prior to and 30 min. after the injection of LPS. All hemodynamic and biochemical parameters were recorded for 6 hours in all animal groups.
(§2) Compounds, XXV and XXVI (shown below), were tested according to the foregoing protocols. In the following tables, XXV or XXVI (5 mg/Kg, iv) was injected 30 min before LPS treatment (10 mg/Kg, iv) unless otherwise indicated. In all experiments, at least six rats were tested. All measurements were performed 6 h after LPS injection unless otherwise indicated. The inhibitory effects of the compounds tested were described as a percentage of protection or inhibition with respect to the change in LPS-treated animals as compared to the control animals.

Superoxide = Superoxide in LPS-treated rats; format: in vivo; conditions: 6 h after LPS
Experimental: as §2

SGPT = test: Serum glutamic pyrate transaminase (SGPT) in LPS-treated rats; format: in vivo; conditions: for SGPT, LPS + Compound / SGPT % Inhibition: 6 h after LPS
Experimental: as §1
(§3) 10 μl of serum was taken out at 0 and 6 hr intervals and were added to slides of GOP and GTP and then placed in DRI-CHEM 3000 (Colorige Tric Analyzer; FUJIFILM; Tokyo, Japan.
as §2

[2] = system: rats treated with lipopolysaccharide (LPS); test: Heart rate in LPS-treated rats; format: in vivo, Wistar-Kyoto (WKY) rats; conditions: 5 mg/Kg iv 30 min before LPS (10 mg/Kg iv); 6 h after LPS
Experimental: as §1, §2

[3] = system: lung tissues of rats receiving lipopolysaccharide (LPS); test: Histological study of lung tissue after LPS
Excerpt: Lungs and livers were obtained from surviving mice in each group after the survival study and these tissues were fixed in Carson-Millonig's solution for histopathological examination as described previously in Chen, A. et al. Lab. […] The fixed lung and liver tissues were dehydrated in graded ethanol and embedded in paraffin. Three-micron sections were stained with the hematoxylin and eosin reagent for light microscopy. […] This histological alteration was quantitatively analyzed as an index on the severity of tissue injury. This index was a neutrophil infiltration index which was determined by counting the numbers of neutrophils in 10 randomly selected high power fields. The index was expressed as the mean of these 10 numbers±standard error of the mean (SEM)/high power field.

TNF-α = test: Plasma TNF-α (ELISA) in LPS-treated rats; format: in vivo, Wistar-Kyoto (WKY) rats; conditions: 5 mg/Kg iv 30 min before LPS (10 mg/Kg iv); measurement taken at 2 h
Experimental: as §1
Blood samples (0.3 mL) for the measurement of TNF-α level in the plasma were obtained at 0, 60, 120, 180, and 360 min. after the injection of saline or LPS. At 60 and 360 min. after the injection of saline or LPS, the volume of blood sample taken from the animals was 0.5 mL instead of 0.3 mL for performing the measurement of IL-10 in addition to TNF-α. These samples were collected from a catheter placed in the carotid artery and were centrifuged at 7200 g for 3 min. to obtain the plasma for measuring the levels of TNF-α, IL-10, and nitrate (as described below). The plasma samples (100 μL) were diluted 1:2, and TNF-α was measured in duplicate with an enzyme-linked immunoadsorbent assay (ELISA) kit (Genzyme Co., Cambridge, Mass.), and the amounts of IL-10 in the plasma (100 μL) were measured by ELISA kit (Endogen Inc., Boston, Mass.), as described previously (Yen, M. H. et al.: Biochem. Biophys. Res. Commun. 228:459-466 (1996)).
Compounds, XXV and XXVI (shown below), were tested according to the foregoing protocols. In the following tables, XXV or XXVI (5 mg/Kg, iv) was injected 30 min before LPS treatment (10 mg/Kg, iv) unless otherwise indicated. In all experiments, at least six rats were tested. All measurements were performed 6 h after LPS injection unless otherwise indicated. […]

[4] = system: ICR mice injected with LPS; test: Survival study after LPS; format: in vivo
Experimental: Survival studies were performed in ICR mice (28-35 g), whose stock originated from the Institute of Cancer Research of National Institute of Health in U.S.A. They were purchased from the National Animal Center (Taipei, R.O.C., Taiwan). LPS [60 mg/kg intraperitoneally (i.p.)] was injected in the presence of vehicle or drugs and survival was monitored every 6 hours until 36 hours, Different groups of animals received vehicle (saline) together with LPS (n=20) or LPS plus compounds (2.5 mg/kg at time 0 and 6 hours after LPS, n=20).
All values in the figures and text are expressed as mean. SEM of n observations, where n represents the number of animals studied. Statistical evaluation was performed by using analysis of variance (ANOVA) followed by a multiple comparison test (Scheffe's test), the IL-10 level and the neutrophil infiltration index which were analyzed by unpaired Student's t test. The chi-square test was used for determining the significant differences in the survival rate between control and drug-treated groups. A P value of less than 0.05 was considered to be statistically significant.

Blood urea nitrogen = Blood urea nitrogen (BUN) in LPS-treated rats; format: in vivo; conditions: 5 mg/Kg iv 30 min before LPS (10 mg/Kg iv); 6 h after LPS
Experimental: as §1, with “Any blood withdrawn was immediately replaced by the injection of an equal volume of saline (i.v.) in order to maintain the blood volume. The drug was administered i.v. 30 min. prior to and 30 min. after the injection of LPS.” left out
(§4) BUN and Creatinine levels were measured at 0 and 6 hr after injection of saline or LPS by “DRI-Chemical slide” (Fujifilm Co., dropping 10 μL plasma onto the slide with micropipette). […]

SGOT = test: Serum glutamic oxaloacetic transaminase (SGOT) in LPS-treated rats; format: in vivo; conditions: for SGOT % Inhibition / SGOT, LPS + Compound: 6 h after LPS
Experimental: as §1, §3, §2

Creatinine = test: Plasma creatinine in LPS-treated rats; format: in vivo; conditions: 5 mg/Kg iv 30 min before LPS (10 mg/Kg iv); 6 h after LPS
Experimental: as §1, with “Any blood withdrawn was immediately replaced by the injection of an equal volume of saline (i.v.) in order to maintain the blood volume. The drug was administered i.v. 30 min. prior to and 30 min. after the injection of LPS.” left out
as §4

[5] = system: nitrate (an indicator of NO); test: Plasma nitrate in LPS-treated rats; format: in vivo, Wistar-Kyoto (WKY) rats; conditions: 5 mg/Kg iv 30 min before LPS (10 mg/Kg iv); 6 h after LPS
Experimental: as §1, with “Prior to (i.e., at time 0) and every hour after vehicle or LPS, 0.5 mL of blood was taken to measure the changes in cytokine tumor necrosis factor-α (TNF-α), interleukin-10β (IL-10), and nitrate (an indicator of NO) (Yen, M. H. et al., Shock 14, 60-67, 2000). Any blood withdrawn was immediately replaced by the injection of an equal volume of saline (i.v.) in order to maintain the blood volume. The drug was administered i.v. 30 min. prior to and 30 min. after the injection of LPS.” left out
Fifty microliters of plasma previously kept in −20° C. freezer was thawed and de-proteinized by incubating with 95% ethanol (4° C.) for 30 min. […] The amounts of nitrate in the plasma ([…]) were measured by adding a reducing agent (0-8% VCl3 in 1N HCl) to the purge vessel to convert nitrate to NO, which was stripped from the plasma by using a helium gas purge. […] Nitrate concentrations were calculated by comparison with standard solutions of sodium nitrate (Sigma Chemical Co., St. Louis, Mo.). […]

[6] = 5 mg/Kg iv 30 min before LPS (10 mg/Kg iv)
[7] = 5 mg/Kg iv 30 min before LPS (10 mg/Kg iv), XXVI value not statistically significant
[8] = 6 hours after LPS, pretreatment (30 min before LPS; 5, 10 mg/kg) and post-treatment (30 min after LPS; 10 mg/kg), p<0.05

Sequence of σ1 (Q99720 whole entry): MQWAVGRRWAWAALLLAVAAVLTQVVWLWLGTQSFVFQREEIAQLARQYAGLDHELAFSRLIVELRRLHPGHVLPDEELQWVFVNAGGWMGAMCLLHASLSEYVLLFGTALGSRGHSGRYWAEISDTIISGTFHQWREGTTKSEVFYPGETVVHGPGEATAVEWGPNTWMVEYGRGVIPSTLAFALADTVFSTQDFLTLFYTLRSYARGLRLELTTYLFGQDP

SMILES: C=CCCCN1CCC2(C)c3cc(O)ccc3CC1C2C (stereo not shown) [N-pent-4-enyl]
- Ki (σ1): 2 nM
- σ2/σ1 (σ1; selectivity ratio): 1250

SMILES: C=CCCCCN1CCC2(C)c3cc(O)ccc3CC1C2C (stereo not shown) [N-hex-5-enyl]
- Ki (σ1): 1 nM
- σ2/σ1 (σ1; selectivity ratio): 750

SMILES: COc1ccc2c(c1)[C@]13CCCCC1[C@H](C2)N(C)CC3 (stereo partly shown) [XXVI]
- MAP % Protection [1]: 100%
- MAP, LPS + Compound [1]: 105 mmHg
- Superoxide % Inhibition (Superoxide; [6]): 68%
- Superoxide, LPS + Compound (Superoxide; [6]): 8200 relative units
- SGPT, LPS + Compound (SGPT; [6]): 36 U/L
- SGPT % Inhibition (SGPT; [7]): 100^3%
- Heart Rate % Protection [2]: 36%
- Heart Rate, LPS + Compound [2]: 420 beats/min
- Lung tissue morphology after compound alone ([3]; injections of compound alone, no LPS, n=2, FIG. 5 (400×) and FIG. 6 (40×)): morphologically relatively normal lung tissues
- PMN infiltration in lung caused by LPS ([3]; pretreatment with compound, high power (400×) light microscope, FIG. 5): improved
- Thickness of alveolar wall with interstitial congestion and edema caused by LPS ([3]; pretreatment with compound, low power (40×) light microscope, FIG. 6): improved
- TNF-α % Inhibition (TNF-α): 74%
- TNF-α, LPS + Compound (TNF-α): 510 ng/mL
- % of Protection (survival at 14 h) ([4]; 14 h after LPS): 100%
- % of Survival at 14 h, LPS + Compound ([4]; 14 h after LPS, method: LPS 60 mg/kg i.p., compound 2.5 mg/kg at 0 and 6 h): 100%
- % of Protection (survival at 18 h) ([4]; 18 h after LPS): 40%
- % of Survival at 18 h, LPS + Compound ([4]; 18 h after LPS, method: LPS 60 mg/kg i.p., compound 2.5 mg/kg at 0 and 6 h): 40%
- Blood urine nitrogen % of Inhibition (Blood urea nitrogen): 47%
- Blood urine nitrogen, LPS + Compound (Blood urea nitrogen): 45 mg/dL
- SGOT % Inhibition (SGOT; [6]): 53%
- SGOT, LPS + Compound (SGOT; [6]): 158 U/L
- Creatinine % of Inhibition (Creatinine): 60%
- Creatinine, LPS + Compound (Creatinine): 0.40 mg/dL
- Nitrate % Inhibition [5]: 75%
- Nitrate, LPS + Compound [5]: 75 µM

SMILES: Br.COc1ccc2c(c1)[C@@]13CCCC[C@H]1[C@@H](C2)N(Cc1ccccc1)CC3
- melting point: 185 to 186 °C

SMILES: O=C1CC[C@@]2(O)[C@@H]3Cc4ccc(O)c5c4C2(CCN3CC2CC2)[C@H]1O5 [XXV]
- MAP % Protection [1]: 33%
- MAP, LPS + Compound [1]: 80 mmHg
- Superoxide % Inhibition (Superoxide; Post-treatment with 10 mg/Kg): 69%
- Superoxide, LPS + Compound (Superoxide; Post-treatment with 10 mg/Kg): 15720 relative units
- Superoxide % Inhibition (Superoxide; Pretreatment with 10 mg/Kg): 85%
- Superoxide, LPS + Compound (Superoxide; Pretreatment with 10 mg/Kg): 11866 relative units
- SGPT, LPS + Compound (SGPT; [6]): 61.6 U/L
- SGPT % Inhibition (SGPT; [7]): 78%
- Effect on SGTP after LPS (SGPT; [8]): significant decrease
- SGPT % Inhibition (SGPT; Post-treatment with 10 mg/Kg): 82%
- SGPT, LPS + Compound (SGPT; Post-treatment with 10 mg/Kg): 59.6 U/L
- SGPT % Inhibition (SGPT; Pretreatment with 10 mg/Kg): 94%
- SGPT, LPS + Compound (SGPT; Pretreatment with 10 mg/Kg): 53.8 U/L
- Heart Rate % Protection [2]: >90%
- Heart Rate, LPS + Compound [2]: 410 beats/min
- TNF-α % Inhibition (TNF-α): 50%
- TNF-α, LPS + Compound (TNF-α): 180 ng/mL
- SGOT % Inhibition (SGOT; [6]): 60%
- SGOT, LPS + Compound (SGOT; [6]): 192 U/L
- Effect on SGOT after LPS (SGOT; [8]): significant decrease
- SGOT % Inhibition (SGOT; Post-treatment with 10 mg/Kg): 76%
- SGOT, LPS + Compound (SGOT; Post-treatment with 10 mg/Kg): 192 U/L
- SGOT % Inhibition (SGOT; Pretreatment with 10 mg/Kg): 94%
- SGOT, LPS + Compound (SGOT; Pretreatment with 10 mg/Kg): 192 U/L

SMILES: Br.COc1ccc2c(c1)[C@@]13CCCC[C@H]1[C@@H](C2)N(Cc1ccc(F)cc1)CC3
- melting point: 226 to 228 °C

SMILES: Br.C=CCN1CC[C@]23CCCC[C@H]2[C@H]1Cc1ccc(OC)cc13
- melting point: 190 to 192 °C

SMILES: C=CCN1CCC2(C)c3cc(O)ccc3CC1C2C (stereo not shown) [N-allylnormetazocine]
- affinity at σ1 (σ1): relatively poor affinity
- σ1/σ2 ratio (σ1; selectivity ratio): < 100
